Source: PubChem BioAssay AID2060612 (Molecular Pharmacology Branch, DTP, NCI, 2025)
Several values for one entry are separate records, joined by “and”; a condition that tells them apart may be missing. Equal values may be shown once.

Tested on: 565232-114-T-J1-PDC complex spheroid viability
Experiment: Anticancer human tumor 565232-114-T-J1-PDC patient-derived bladder carcinoma cell line growth inhibition [CLK]
Details: for viability, T/C: stronger effect = lower value
Description: A high-throughput screen of multi-cell type tumor spheroids was designed to identify active combinations of […] and targeted small molecules. Complex spheroids include a stromal component modeled by human endothelial cells (HUVEC) and fibroblasts modeled by human mesenchymal stem cells (MSCs). The concentration ranges selected for each drug and investigational agent were based upon clinically achievable concentrations if the clinical Cmax of the agent was known.
Compounds. The drugs and investigational agents: cirtuvivint (SM08502; NSC835563), CC-671 (NSC850746), vemurafenib (NSC761431), tapotoclax (NSC804041), sotorasib (NSC818433), adagrasib (NSC831453), MRTX-1133 (NSC836407), BAY2416964 (NSC825713), copanlisib (NSC816437), inavolisib (NSC800729), abemaciclib (NSC768073), osimertinib (NSC779217), entinostat (NSC756642), eltanexor (KPT-8602, NSC794443), venetoclax (NSC766270), ceralasertib (NSC777638), bortezomib (NSC756655), olaparib (NSC753686), talazoparib (NSC767125), alisertib (NSC759677), peposertib (NSC802822), gemcitabine (NSC613327), 5-fluorouracil (NSC19893), SN-38 (NSC673596), oxaliplatin (NSC266046), paclitaxel (NSC125973), and doxorubicin (NSC123127), were obtained from the National Cancer Institute (NCI) Developmental Therapeutics Program Chemical Repository. The FDA-approved anticancer drug set is available from the Developmental Therapeutics Program at https://dtp.cancer.gov/organization/dscb/obtaining/available plates.htm. […] The stock solutions were prepared in dimethyl sulfoxide (DMSO, Sigma-Aldrich, St. Louis, MO, cat. D2650), except for the platinum complexes which were prepared in saline (Quality Biological, Gaithersburg, MD, cat. 114-055-101), at 800-fold the tested concentration and stored at -70 degrees C prior to their use. All drugs and investigational agents were tested over a range starting from a high concentration at or near the clinical Cmax and decreasing in half-log increments. If the clinical Cmax for an agent had not been determined, the highest concentration tested was 10 microM.
Cell Culture. All cells were maintained in an incubator at 37 degrees C and 5% CO2 with 95% humidity. The PDC lines were cultured according to standard operating procedures established by the NCI PDMR. Briefly, all PDCs were thawed and cultured in Matrigel-coated flasks prepared with a working solution of 1X Ham's F-12 nutrient mix, without supplementation (Invitrogen, Waltham, MA, cat. 11765054), 100 U/mL penicillin-streptomycin (Invitrogen, cat. 15140122), and 2.5% Matrigel (Corning Inc., Corning, NY, cat. 354248) for the first three passages. The 947758-054-R-J2-PDC line was cultured in 6B/Colon 1A media, which includes advanced DMEM/F-12 (Thermo Fisher Scientific, cat. 12634028), 10 mM HEPES (Thermo Fisher Scientific, cat. 15630080), 1X GlutaMAX supplement (Thermo Fisher Scientific, cat. 35050061), 0.1 mg/mL primocin (InvivoGen, cat. ant-pm-2), 10% defined fetal bovine serum, heat inactivated (HyClone Laboratories Inc., cat. SH30070.03HI), 1.25 mM N-Acetyl-L-cysteine (Sigma-Aldrich, cat. A9165), 10 mM nicotinamide (Sigma-Aldrich, cat. N0636), 1X B-27 supplement (Thermo Fisher Scientific, cat. 17504044), 1X N-2 supplement (Thermo Fisher Scientific, cat. 17502048), and 10 microM Y-27632 dihydrochloride (Tocris Bioscience, cat. 1254). The 876862-298-R-J1-PDC was cultured in 6E media, which includes all 6B/Colon 1A media components plus 50% L-WRN conditioned media (ATCC, cat. CRL-3276), 50 ng/mL recombinant human EGF recombinant protein (hEGF; Thermo Fisher Scientific, cat. PHG0311), 10 ng/mL recombinant human fibroblast growth factor 10 (hGFG-10; PeproTech, cat. 100-26), 1 ng/mL recombinant human fibroblast growth factor 2 (hFGF-2; PeproTech, cat. 100-18B), and 1 µM prostaglandin E2 (PGE2; Tocris, cat. 2296). The 227483-062-R1-J1-PDC line was cultured in Panc media, containing all 6E components except hFGF-2, with the addition of 500 nM SB-431542 (Selleckchem, cat. S1067) and 10 nM gastrin (Tocris, cat. 3006). […]
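Note: spheroids exposed to compounds for 7 days before readout.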
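Throughout, for viability, T/C: 100% = DMSO vehicle wells with luminescence normalized to vehicle control.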

IC50 (curve of compound) | Structure (SMILES) | viability, T/C (compound 0.0316 µM) | viability, T/C (compound 0.1 µM) | viability, T/C (compound 0.316 µM) | viability, T/C (compound 1 µM) | viability, T/C (compound 3.16 µM) | viability, T/C (compound 10 µM) | also measured
> 10000 nM | C#Cc1c(F)ccc2cc(O)cc(-c3ncc4c(N5CC6CCC(C5)N6)nc(OCC56CCCN5CC(F)C6)nc4c3F)c12 (stereo not drawn) | 106% and 77.8% | 92.2% and 83.3% | 103% and 102% | 93.2% and 110% | 98.7% and 94.8% | 93% and 95.2% | 
5680 nM | C=C(F)C(=O)N1CCN(c2nc(OCC3CCCN3C)nc3c2CCN(c2cccc4cccc(Cl)c24)C3)CC1CC#N (stereo not drawn) | 103% | 103% | 88.9% | 109% | 105% | 0.24% | 
> 10000 nM | C=CC(=O)N1CCN(c2nc(=O)n(-c3c(C)ccnc3C(C)C)c3nc(-c4c(O)cccc4F)c(F)cc23)C(C)C1 (stereo not drawn) | 122% | 82.7% | 91.2% | 97% | 110% | 111% | 
> 300 nM | C=CC(=O)Nc1cc(Nc2nccc(-c3cn(C)c4ccccc34)n2)c(OC)cc1N(C)CCN(C)C |  |  |  |  |  |  | viability, T/C (compound 0.000949 µM): 93.7% and 95.9%; viability, T/C (compound 0.003 µM): 76% and 82.3%; viability, T/C (compound 0.00949 µM): 101% and 91.3%; viability, T/C (compound 0.03 µM): 104% and 89.6%; viability, T/C (compound 0.0949 µM): 87.5% and 109%; viability, T/C (compound 0.3 µM): 112% and 110%
> 10000 nM | CC(CO)NC(=O)c1cc(-c2ccc(Cl)cc2)nn(-c2cnn(C)c2)c1=O (stereo not drawn) | 97.3% and 115% | 85.3% and 77.5% | 83.9% and 109% | 90.8% and 89.4% | 94.1% and 97.8% | 90.5% and 91.3% | 
7080 nM and 9110 nM | CC1(C)CCC(CN2CCN(c3ccc(C(=O)NS(=O)(=O)c4ccc(NCC5CCOCC5)c([N+](=O)[O-])c4)c(Oc4cnc5[nH]ccc5c4)c3)CC2)=C(c2ccc(Cl)cc2)C1 | 83.5% and 111% | 86.5% and 97.6% | 80.5% and 95.8% | 72.6% and 95.6% | 78.2% and 100% | 38.4% and 45.6% | 
> 10000 nM and 6780 nM | CC1COCCN1c1cc(C2(S(C)(=N)=O)CC2)nc(-c2ccnc3[nH]ccc23)n1 (stereo not drawn) | 83.5% and 105% | 88.9% and 90.1% | 101% and 94.8% | 88% and 99.1% | 76.2% and 99.8% | 63.5% and 25.8% | 
6490 nM | CCCS(=O)(=O)Nc1ccc(F)c(C(=O)c2c[nH]c3ncc(-c4ccc(Cl)cc4)cc23)c1F | 81.4% | 88.2% | 101% | 104% | 113% | 21.5% | 
> 1000 nM | CCN1CCN(Cc2ccc(Nc3ncc(F)c(-c4cc(F)c5nc(C)n(C(C)C)c5c4)n3)nc2)CC1 | 99.3% and 92.6% | 85.6% and 91.6% | 103% and 81.7% | 120% and 115% |  |  | viability, T/C (compound 0.00316 µM): 90.3% and 109%; viability, T/C (compound 0.01 µM): 84.6% and 93.8%
> 1000 nM | COc1c(OCCCN2CCOCC2)ccc2c3n(c(=NC(=O)c4cnc(N)nc4)nc12)CCN3 | 101% | 103% | 120% | 66.1% |  |  | viability, T/C (compound 0.00316 µM): 97.1%; viability, T/C (compound 0.01 µM): 78.6%
5900 nM and 4160 nM | Nc1ccccc1NC(=O)c1ccc(CNC(=O)OCc2cccnc2)cc1 | 103% and 80.6% | 94.5% and 89.7% | 110% and 94.7% | 106% and 113% | 117% and 65.5% | 2.78% and 0.64% | 
> 10000 nM | O=C(c1cc(Cc2n[nH]c(=O)c3ccccc23)ccc1F)N1CCN(C(=O)C2CC2)CC1 | 128% and 92% | 96.3% and 94.3% | 113% and 94.3% | 90.7% and 83.8% | 95% and 117% | 122% and 58.1% | 

Further lines, the compound ahead of its results:

Structure (SMILES) | IC50 (curve of compound) | viability, T/C (compound 0.0316 µM) | viability, T/C (compound 0.1 µM) | viability, T/C (compound 0.316 µM) | viability, T/C (compound 1 µM) | viability, T/C (compound 3.16 µM) | viability, T/C (compound 10 µM) | also measured
CC(=O)O[C@H]1C(=O)[C@@]2(C)[C@H]([C@H](OC(=O)c3ccccc3)[C@]3(O)C[C@H](OC(=O)[C@H](O)[C@@H](NC(=O)c4ccccc4)c4ccccc4)C(C)=C1C3(C)C)[C@]1(OC(C)=O)CO[C@@H]1C[C@@H]2O | < 31.6 nM | 39.2% and 16.7% | 20.1% and 11.8% | 19.2% and 10.8% | 15.5% and 6.12% | 20% and 10.1% | 23.2% and 10.5% | 
CC(C)CC(NC(=O)C(Cc1ccccc1)NC(=O)c1cnccn1)B(O)O (stereo not drawn) | 5.16 nM and 5.03 nM |  |  |  |  |  |  | viability, T/C (compound 0.000949 µM): 97.2% and 89.6%; viability, T/C (compound 0.003 µM): 85.3% and 89.2%; viability, T/C (compound 0.00949 µM): 10.3% and 1.88%; viability, T/C (compound 0.03 µM): 4.99% and 0.69%; viability, T/C (compound 0.0949 µM): 2.74% and 2.59%; viability, T/C (compound 0.3 µM): 1.61% and 0.54%
CC(Nc1ccc2c(c1)OCCn1cc(N3C(=O)OCC3C(F)F)nc1-2)C(N)=O (stereo not drawn) | > 10000 nM | 99.5% | 83.6% | 92.9% | 98.5% | 92.8% | 102% | 
CCc1c2c(nc3ccc(O)cc13)-c1cc3c(c(=O)n1C2)COC(=O)[C@]3(O)CC | 65.5 nM and 18.9 nM | 66.4% and 18% |  | 18.8% and 5.03% | 5.24% and 1.76% |  |  | viability, T/C (compound 0.00316 µM): 91.1% and 106%; viability, T/C (compound 0.01 µM): 76.9% and 89.2%
CN1CCN(c2cc(C(=O)Nc3cc4cc(-c5cnn(C)c5)ccc4cn3)ccn2)CC1 |  | 97.6% [middle of 9 runs] | 106% [middle of 9 runs] | 19.9% [middle of 9 runs] | 1.63% [middle of 9 runs] | 0.86% [middle of 9 runs] | 0.47% [middle of 9 runs] | IC50 (compound alone, run of 07/31/2023): 212 nM [middle of 8 runs]
COC1C=CCC(C)C(C)S(=O)(=O)NC(=O)c2ccc3c(c2)N(CC2CCC21)CC1(CCCc2cc(Cl)ccc21)CO3 (stereo not drawn) | 568 nM | 93.3% | 92.9% | 79.9% | 21% | 6.86% | 3.28% | 
Cn1ncnc1[C@H]1c2n[nH]c(=O)c3cc(F)cc(c23)N[C@@H]1c1ccc(F)cc1 | > 100 nM and 78.6 nM | 104% and 99.3% | 105% and 37% |  |  |  |  | viability, T/C (compound 0.000316 µM): 93.9% and 110%; viability, T/C (compound 0.001 µM): 72.5% and 92.8%; viability, T/C (compound 0.00316 µM): 77.5% and 109%; viability, T/C (compound 0.01 µM): 109% and 97.4%
NC(=O)C(=Cn1cnc(-c2cc(C(F)(F)F)cc(C(F)(F)F)c2)n1)c1cncnc1 | 436 nM and 319 nM |  |  |  |  |  |  | viability, T/C (compound 0.00949 µM): 99% and 110%; viability, T/C (compound 0.03 µM): 99.6% and 106%; viability, T/C (compound 0.0949 µM): 111% and 105%; viability, T/C (compound 0.3 µM): 71.5% and 52.6%; viability, T/C (compound 0.949 µM): 6.85% and 2.59%; viability, T/C (compound 3 µM): 1.92% and 0.42%
Nc1ccn(C2OC(CO)C(O)C2(F)F)c(=O)n1 (stereo not drawn) | 151 nM and 31.8 nM | 95.5% and 50.3% | 57% and 17.7% | 36.3% and 10.3% | 35.6% and 9.39% | 37.5% and 13% | 39.9% and 13.2% | 
O=c1[nH]cc(F)c(=O)[nH]1 | > 10000 nM | 91.2% and 106% | 80.1% and 80.5% | 80.7% and 124% | 88.1% and 93.1% | 134% and 80.6% | 131% and 71.9% | 
